Measured values reported in article PMC7534383, “Structure-activity relationship of 7-aryl-2-anilino-pyrrolopyrimidines as Mer and Axl tyrosine kinase inhibitors” (Journal of Enzyme Inhibition and Medicinal Chemistry, 2020).
Read-outs that look alike come from different tables or passages of the source.

Key:
Format in all cases: biochemical
AXL = target: T1, AXL (Homo sapiens, UniProt P30530); assay: Kinase assay at Km ATP (Eurofins Discovery), Axl; details: for IC50: Km ATP
T1 sequence (P30530 26-894): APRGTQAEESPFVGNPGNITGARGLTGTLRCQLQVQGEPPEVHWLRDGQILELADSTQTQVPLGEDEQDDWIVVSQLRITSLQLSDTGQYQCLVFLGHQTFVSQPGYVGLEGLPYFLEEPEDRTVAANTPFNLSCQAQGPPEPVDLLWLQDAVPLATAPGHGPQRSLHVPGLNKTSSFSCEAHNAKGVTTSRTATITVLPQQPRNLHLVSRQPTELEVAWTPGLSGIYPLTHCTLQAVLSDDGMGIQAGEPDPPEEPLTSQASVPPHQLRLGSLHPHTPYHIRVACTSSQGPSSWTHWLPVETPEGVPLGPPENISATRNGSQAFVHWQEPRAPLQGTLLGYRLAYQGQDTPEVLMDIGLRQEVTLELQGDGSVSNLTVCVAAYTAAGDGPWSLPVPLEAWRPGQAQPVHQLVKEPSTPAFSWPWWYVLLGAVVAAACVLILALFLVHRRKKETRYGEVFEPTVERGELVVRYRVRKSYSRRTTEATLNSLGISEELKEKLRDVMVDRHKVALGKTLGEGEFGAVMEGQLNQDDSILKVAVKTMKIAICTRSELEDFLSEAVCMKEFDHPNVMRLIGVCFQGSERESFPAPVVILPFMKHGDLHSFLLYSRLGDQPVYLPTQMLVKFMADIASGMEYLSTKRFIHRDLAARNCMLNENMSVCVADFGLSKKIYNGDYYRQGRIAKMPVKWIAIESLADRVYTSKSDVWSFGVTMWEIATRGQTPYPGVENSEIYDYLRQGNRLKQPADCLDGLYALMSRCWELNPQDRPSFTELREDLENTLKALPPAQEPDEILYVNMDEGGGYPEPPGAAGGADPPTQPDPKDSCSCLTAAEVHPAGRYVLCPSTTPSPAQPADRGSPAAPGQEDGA
Description: (§1) All kinase assays were carried out at Km ATP by Eurofins Discovery's Kinase Screening and Profiling services (France).

TYRO3 = target: T2, TYRO3 (Homo sapiens, UniProt Q06418); assay: Kinase assay at Km ATP (Eurofins Discovery), Tyro3
T2 sequence (Q06418 41-890): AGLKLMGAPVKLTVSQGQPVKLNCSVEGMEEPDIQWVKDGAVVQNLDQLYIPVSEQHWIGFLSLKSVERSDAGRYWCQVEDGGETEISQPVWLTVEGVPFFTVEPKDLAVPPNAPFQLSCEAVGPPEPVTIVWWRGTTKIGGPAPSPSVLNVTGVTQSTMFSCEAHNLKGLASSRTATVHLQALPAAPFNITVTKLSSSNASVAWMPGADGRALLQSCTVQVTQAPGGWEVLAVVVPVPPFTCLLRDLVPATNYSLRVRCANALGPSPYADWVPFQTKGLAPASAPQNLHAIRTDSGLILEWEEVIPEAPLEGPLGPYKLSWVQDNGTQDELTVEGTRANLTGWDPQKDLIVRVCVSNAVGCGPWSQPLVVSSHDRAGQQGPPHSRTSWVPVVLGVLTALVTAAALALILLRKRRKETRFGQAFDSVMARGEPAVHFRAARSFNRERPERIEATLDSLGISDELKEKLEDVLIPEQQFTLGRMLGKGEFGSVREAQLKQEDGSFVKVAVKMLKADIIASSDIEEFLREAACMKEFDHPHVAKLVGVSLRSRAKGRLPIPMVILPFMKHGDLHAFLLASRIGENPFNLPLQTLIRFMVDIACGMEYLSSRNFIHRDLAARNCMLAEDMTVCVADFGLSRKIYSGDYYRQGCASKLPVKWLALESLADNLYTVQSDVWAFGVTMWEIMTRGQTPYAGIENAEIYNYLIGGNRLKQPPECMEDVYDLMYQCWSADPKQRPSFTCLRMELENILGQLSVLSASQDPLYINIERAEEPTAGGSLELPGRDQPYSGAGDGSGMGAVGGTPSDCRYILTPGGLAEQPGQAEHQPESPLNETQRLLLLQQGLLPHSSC
Description: as §1

MERTK = target: T3, MERTK (Homo sapiens, UniProt Q12866); assay: Kinase assay at Km ATP (Eurofins Discovery), Mer; details: for IC50: Km ATP
T3 sequence (Q12866 21-999): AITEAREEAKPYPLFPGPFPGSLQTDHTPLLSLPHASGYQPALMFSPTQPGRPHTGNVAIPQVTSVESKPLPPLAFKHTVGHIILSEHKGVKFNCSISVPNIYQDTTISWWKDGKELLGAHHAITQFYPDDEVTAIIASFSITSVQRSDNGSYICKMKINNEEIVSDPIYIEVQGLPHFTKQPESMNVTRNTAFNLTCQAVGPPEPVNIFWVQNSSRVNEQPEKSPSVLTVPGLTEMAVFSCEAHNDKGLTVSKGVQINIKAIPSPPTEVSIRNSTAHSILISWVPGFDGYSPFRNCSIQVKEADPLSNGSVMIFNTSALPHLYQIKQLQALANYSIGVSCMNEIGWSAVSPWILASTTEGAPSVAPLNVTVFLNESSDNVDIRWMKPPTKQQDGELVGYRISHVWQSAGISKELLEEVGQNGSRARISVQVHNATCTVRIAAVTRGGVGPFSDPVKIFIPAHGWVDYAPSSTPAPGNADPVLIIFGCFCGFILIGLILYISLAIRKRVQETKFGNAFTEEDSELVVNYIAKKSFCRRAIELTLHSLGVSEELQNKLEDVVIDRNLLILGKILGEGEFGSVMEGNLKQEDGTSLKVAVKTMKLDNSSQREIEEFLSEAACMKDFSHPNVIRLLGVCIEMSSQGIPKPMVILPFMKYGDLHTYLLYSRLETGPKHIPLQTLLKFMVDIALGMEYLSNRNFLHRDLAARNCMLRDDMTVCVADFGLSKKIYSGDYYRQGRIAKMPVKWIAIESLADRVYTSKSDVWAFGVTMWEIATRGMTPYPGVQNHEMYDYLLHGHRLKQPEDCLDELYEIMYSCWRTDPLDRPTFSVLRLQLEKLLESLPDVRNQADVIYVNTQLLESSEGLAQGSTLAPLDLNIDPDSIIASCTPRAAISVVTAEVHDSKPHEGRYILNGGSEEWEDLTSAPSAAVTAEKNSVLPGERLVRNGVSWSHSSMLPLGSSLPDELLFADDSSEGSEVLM
Description: as §1

[1] = Table 1, mean values, read-out: IC50 (nM) MERTK
[2] = Table 2, read-out: IC50 (nM) MER
[3] = Table 3, read-out: IC50 (nM) MER

Row | SMILES | inhibition at 1 µM (TYRO3) | IC50 (AXL; Table 2) | IC50 (MERTK; [2]) | other results
1 | COc1ccc(-n2ccc3cnc(Nc4cccc(OC)c4)nc32)cc1 [Compound 2, N-(3-Methoxyphenyl)-7–(4-methoxyphenyl)-7H-pyrrolo[2,3-d]pyrimidin-2-amine] | 38% | – | – | IC50 (AXL; Table 1, mean values): 1240 nM; IC50 (MERTK; [1]): 39 nM
2 | COc1ccc(-n2ccc3cnc(Nc4ccccc4)nc32)cc1 [Compound 3, 7–(4-Methoxyphenyl)-N-phenyl-7H-pyrrolo[2,3-d]pyrimidin-2-amine] | 44% | – | – | IC50 (AXL; Table 1, mean values): 751 nM; IC50 (MERTK; [1]): 95 nM
3 | COc1ccc(-n2ccc3cnc(Nc4cccc(-c5ccccc5)c4)nc32)cc1 [Compound 4, N-([1,1′-Biphenyl]-3-yl)-7–(4-methoxyphenyl)-7H-pyrrolo[2,3-d]pyrimidin-2-amine] | 12% | – | – | IC50 (AXL; Table 1, mean values): > 3000 nM; IC50 (MERTK; [1]): > 3000 nM
4 | COc1ccc(-n2ccc3cnc(N4CCN(C)CC4)nc32)cc1 [Compound 5, 7–(4-Methoxyphenyl)-2–(4-methylpiperazin-1-yl)-7H-pyrrolo[2,3-d]pyrimidine] | 0% | – | – | IC50 (AXL; Table 1, mean values): > 1000 nM; IC50 (MERTK; [1]): > 1000 nM
5 | COc1ccc(-n2ccc3cnc(Nc4ccc(N5CCN(C)CC5)c(OC)c4)nc32)cc1 [Compound 16, N-(3-Methoxy-4–(4-methylpiperazin-1-yl)phenyl)-7–(4-methoxyphenyl)-7H-pyrrolo[2,3-d]pyrimidin-2-amine] | 27% | 104 nM | 15 nM | fold decreased IC50 for Axl compared to 2 (AXL; relative to compound 2): 12 fold; fold decreased IC50 for Mer compared to 2 (MERTK; relative to compound 2): 2.6 fold
6 | COc1ccc(-n2ccc3cnc(Nc4ccc(NC5CCN(C)CC5)c(OC)c4)nc32)cc1 [Compound 17, 2-Methoxy-N4-(7–(4-methoxyphenyl)-7H-pyrrolo[2,3-d]pyrimidin-2-yl)-N1-(1-methylpiperidin-4-yl)benzene-1,4-diamine] | 37% | 199 nM | 10 nM | –
7 | COc1ccc(-n2ccc3cnc(Nc4ccc(N5CCC(N(C)C)C5)c(OC)c4)nc32)cc1 (stereo not shown) [Compound 18, N-(4–(3-(Dimethylamino)pyrrolidin-1-yl)-3-methoxyphenyl)-7–(4-methoxyphenyl)-7H-pyrrolo[2,3-d]pyrimidin-2-amine] | 30% | 175 nM | 46 nM | –
8 | COc1ccc(-n2ccc3cnc(Nc4cc(OC)cc(N5CCN(C)CC5)c4)nc32)cc1 [Compound 25, N-(3-Methoxy-5–(4-methylpiperazin-1-yl)phenyl)-7–(4-methoxyphenyl)-7H-pyrrolo[2,3-d]pyrimidin-2-amine] | 86% | 17 nM | 2 nM | –
9 | COc1ccc(-n2ccc3cnc(Nc4cc(CN5CCN(C)CC5)cc(OC)c4)nc32)cc1 [Compound 26, N-(3-Methoxy-5-((4-methylpiperazin-1-yl)methyl)phenyl)-7–(4-methoxyphenyl)-7H-pyrrolo[2,3-d]pyrimidin-2-amine] | 92% | 18 nM | 4 nM | –
10 | COc1ccc(-n2ccc3cnc(Nc4cc(OC)cc(N5CCC(C)(N6CCCC6)CC5)c4)nc32)cc1 [Compound 28, N-(3-Methoxy-5–(4-methyl-4-(pyrrolidin-1-yl)piperidin-1-yl)phenyl)-7–(4-methoxyphenyl)-7H-pyrrolo[2,3-d]pyrimidin-2-amine] | 72% | 32 nM | 7 nM | –
11 | COc1ccc(-n2ccc3cnc(Nc4cc(OC)cc(N5CCCC(N6CCCC6)C5)c4)nc32)cc1 (stereo not shown) [Compound 29, N-(3-Methoxy-5–(3-(pyrrolidin-1-yl)piperidin-1-yl)phenyl)-7–(4-methoxyphenyl)-7H-pyrrolo[2,3-d]pyrimidin-2-amine] | 49% | 31 nM | 31 nM | –
12 | COc1ccc(-n2ccc3cnc(Nc4cc(OC)cc(N5CCN(C6COC6)CC5)c4)nc32)cc1 [Compound 30, N-(3-Methoxy-5–(4-(oxetan-3-yl)piperazin-1-yl)phenyl)-7–(4-methoxyphenyl)-7H-pyrrolo[2,3-d]pyrimidin-2-amine] | 39% | 212 nM | 36 nM | –
13 | COc1ccc(-n2ccc3cnc(Nc4cc(OC)cc(N5CCC6(CCCC6)CC5)c4)nc32)cc1 [Compound 31, N-(3-Methoxy-5–(8-azaspiro[4.5]decan-8-yl)phenyl)-7–(4-methoxyphenyl)-7H-pyrrolo[2,3-d]pyrimidin-2-amine] | 4% | > 3000 nM | > 3000 nM | –
14 | COc1ccc(-n2ccc3cnc(Nc4cc(OC)cc(N5CCC6(CCCO6)CC5)c4)nc32)cc1 [Compound 32, N-(3-Methoxy-5–(1-oxa-8-azaspiro[4.5]decan-8-yl)phenyl)-7–(4-methoxyphenyl)-7H-pyrrolo[2,3-d]pyrimidin-2-amine] | 0% | 288 nM | – | –
15 | COc1cc(Nc2ncc3ccn(-c4ccc(OC(F)(F)F)cc4)c3n2)cc(N2CCC(N3CCCC3)CC2)c1 [Compound 33, N-(3-Methoxy-5–(4-(pyrrolidin-1-yl)piperidin-1-yl)phenyl)-7–(4-(trifluoromethoxy)phenyl)-7H-pyrrolo[2,3-d]pyrimidin-2-amine] | 23% | – | – | IC50 (AXL; Table 3): 57 nM; IC50 (MERTK; [3]): 9 nM
16 | COc1cc(Nc2ncc3ccn(-c4ccccc4)c3n2)cc(N2CCC(N3CCCC3)CC2)c1 [Compound 34, N-(3-Methoxy-5–(4-(pyrrolidin-1-yl)piperidin-1-yl)phenyl)-7-phenyl-7H-pyrrolo[2,3-d]pyrimidin-2-amine] | 35% | – | – | IC50 (AXL; Table 3): 48 nM; IC50 (MERTK; [3]): 17 nM
17 | COc1cc(Nc2ncc3ccn(-c4nccs4)c3n2)cc(N2CCC(N3CCCC3)CC2)c1 [Compound 35, N-(3-Methoxy-5–(4-(pyrrolidin-1-yl)piperidin-1-yl)phenyl)-7-(thiazol-2-yl)-7H-pyrrolo[2,3-d]pyrimidin-2-amine] | 16% | – | – | IC50 (AXL; Table 3): 247 nM; IC50 (MERTK; [3]): 64 nM
